The source of these data is ChEMBL document CHEMBL1135076, “Leishmanicidal activity of some aliphatic diamines and amino-alcohols” (Bioorg Med Chem Lett, 2002).

The structures appear in SMILES notation.

Holding throughout (assay type): functional, organism-based
The subject of assay [1] is Leishmania donovani. In words: Tested in vitro for leishmanicidal activity against Leishmania donovani (PP75) at the concentration of 10 ug/mL.
Assay [2] concerns Leishmania amazonensis. The experiment in a line: In vitro for leishmanicidal activity against Leishmania amazonensis (PH8) at the concentration of 100 ug/mL.
Assay [3] deals with Leishmania donovani. In words: In vitro for leishmanicidal activity against Leishmania donovani (PP75) at the concentration of 100 ug/mL.
For assay [4], the system named is Leishmania amazonensis. In words: Tested in vitro for leishmanicidal activity against Leishmania amazonensis (PH8) at the concentration of 50 ug/mL; + indicates less than 70% lysis of parasites.
The subject of assay [5] is Leishmania donovani. The experiment in a line: In vitro for leishmanicidal activity against Leishmania donovani (PP75) at the concentration of 25 ug/mL.
The subject of assay [6] is Leishmania braziliensis. The experiment in a line: Tested in vitro for leishmanicidal activity against Leishmania brasiliensis (2903) at the concentration of 50 ug/mL;+ indicates Less than 70% lysis of parasites.
In assay [7] the test system is Leishmania braziliensis. In words: In vitro for leishmanicidal activity against Leishmania brasiliensis (2903) at the concentration of 10 ug/mL.
Assay [8] relates to Leishmania amazonensis. The experiment in a line: In vitro for leishmanicidal activity against Leishmania amazonensis (PH8) at 25 ug/mL; No lysis of parasites.
Assay [9] concerns Leishmania braziliensis. The experiment in a line: In vitro for leishmanicidal activity against Leishmania brasiliensis (2903) at the concentration of 25 ug/mL.
The subject of assay [10] is Leishmania donovani. In words: Tested in vitro for leishmanicidal activity against Leishmania donovani (PP75) at the concentration of 50 ug/mL;+ indicates Less than 70% lysis of parasites.
In assay [11] the test system is Leishmania braziliensis. The experiment in a line: Tested in vitro for leishmanicidal activity against Leishmania brasiliensis (2903) at the concentration of 100 ug/mL;++ indicates 80-90% lysis of parasites.
Assay [12] concerns Leishmania amazonensis. In words: In vitro for leishmanicidal activity against Leishmania amazonensis (PH8) at the concentration of 10 ug/mL.
For assay [13], the system named is Leishmania amazonensis. The experiment in a line: In vitro for leishmanicidal activity against Leishmania amazonensis (PH8) at the concentration of 50 ug/mL.
For assay [14], the system named is Leishmania braziliensis. The experiment in a line: Tested in vitro for leishmanicidal activity against Leishmania brasiliensis (2903) at the concentration of 25 ug/mL;++ indicates 80-90% lysis of parasites.
Assay [15] deals with Leishmania donovani. The experiment in a line: In vitro for leishmanicidal activity against Leishmania donovani (PP75) at the concentration of 10 ug/mL.
For assay [16], the system named is Leishmania donovani. In words: Tested in vitro for leishmanicidal activity against Leishmania donovani (PP75) at the concentration of 25 ug/mL;++ indicates 80-90%lysis of parasites.
The subject of assay [17] is Leishmania braziliensis. The experiment in a line: Tested in vitro for leishmanicidal activity against Leishmania brasiliensis (2903) at the concentration of 10 ug/mL;+ indicates Less than 70% lysis of parasites.
Assay [18] concerns Leishmania braziliensis. The experiment in a line: In vitro for leishmanicidal activity against Leishmania brasiliensis (2903) at the concentration of 100 ug/mL.
Assay [19] relates to Leishmania amazonensis. The experiment in a line: Tested in vitro for leishmanicidal activity against Leishmania amazonensis (PH8) at the concentration of 25 ug/mL;++ indicates 80-90% lysis of parasites.
The subject of assay [20] is Leishmania donovani. The experiment in a line: In vitro for leishmanicidal activity against Leishmania donovani (PP75) at the concentration of 50 ug/mL.
Assay [21] has as its system Leishmania amazonensis. The experiment in a line: Tested in vitro for leishmanicidal activity against Leishmania amazonensis (PH8) at the concentration of 10 ug/mL; ++ indicates 80-90% lysis of parasites.
For assay [22], the system named is Leishmania donovani. The experiment in a line: Tested in vitro for leishmanicidal activity against Leishmania donovani (PP75) at the concentration of 10 ug/mL;++ indicates 80-90% lysis of parasites.
The subject of assay [23] is Leishmania braziliensis. In words: Tested in vitro for leishmanicidal activity against Leishmania brasiliensis (2903) at the concentration of 10 ug/mL; ++ indicates 80-90% lysis of parasites.
For assay [24], the system named is Leishmania donovani. In words: Tested in vitro for leishmanicidal activity against Leishmania donovani (PP75) at the concentration of 25 ug/mL;++ indicates 80-90% lysis of parasites.
Assay [25] relates to Leishmania braziliensis. The experiment in a line: Tested in vitro for leishmanicidal activity against Leishmania brasiliensis (2903) at the concentration of 10 ug/mL; + indicatesLess than 70% lysis of parasites.
Assay [26] concerns Leishmania amazonensis. The experiment in a line: Tested in vitro for leishmanicidal activity against Leishmania amazonensis (PH8) at the concentration of 25 ug/mL; ++ indicates 80-90% lysis of parasites.
Assay [27] has as its system Leishmania braziliensis. In words: Tested in vitro for leishmanicidal activity against Leishmania brasiliensis (2903) at the concentration of 25 ug/mL; ++ indicates 80-90% lysis of parasites.
For assay [28], the system named is Leishmania braziliensis. In words: Tested in vitro for leishmanicidal activity against Leishmania brasiliensis (2903) at the concentration of 10 ug/mL;++ indicates 80-90% lysis of parasites.
The test system of assay [29] is Leishmania donovani. In words: Tested in vitro for leishmanicidal activity against Leishmania donovani (PP75) at the concentration of 10 ug/mL++ indicates 80-90% lysis of parasites.
Assay [30] has as its system Leishmania braziliensis. The experiment in a line: Tested in vitro for leishmanicidal activity against Leishmania brasiliensis (2903) at the concentration of 50 ug/mL; + indicates Less than 70% lysis of parasites.
Assay [31] has as its system Leishmania donovani. The experiment in a line: Tested in vitro for leishmanicidal activity against Leishmania donovani (PP75) at the concentration of 25 ug/mL;+ indicates Less than 70% lysis of parasites.
In assay [32] the test system is Leishmania amazonensis. In words: Tested in vitro for leishmanicidal activity against Leishmania amazonensis (PH8) at the concentration of 25 ug/mL; + indicates less than 70% lysis of parasites.
The test system of assay [33] is Leishmania braziliensis. The experiment in a line: Tested in vitro for leishmanicidal activity against Leishmania brasiliensis (2903) at the concentration of 25 ug/mL; + indicates Less than 70% lysis of parasites.
The subject of assay [34] is Leishmania braziliensis. The experiment in a line: Tested in vitro for leishmanicidal activity against Leishmania brasiliensis (2903) at the concentration of 10 ug/mL; + indicates Less than 70% lysis of parasites.
Assay [35] relates to Leishmania braziliensis. The experiment in a line: Tested in vitro for leishmanicidal activity against Leishmania brasiliensis (2903) at the concentration of 50 ug/mL; ++ indicates 80-90%lysis of parasites.
Assay [36] concerns Leishmania amazonensis. In words: Tested in vitro for leishmanicidal activity against Leishmania amazonensis (PH8) at the concentration of 50 ug/mL; ++ indicates 80-90% lysis of parasites.
Assay [37] relates to Leishmania donovani. In words: Tested in vitro for leishmanicidal activity against Leishmania donovani (PP75) at the concentration of 50 ug/mL;++ indicates 80-90%lysis of parasites.
Assay [38] concerns Leishmania amazonensis. In words: Tested in vitro for leishmanicidal activity against Leishmania amazonensis (PH8) at the concentration of 50 ug/mL;++ indicates 80-90% lysis of parasites.
The subject of assay [39] is Leishmania braziliensis. The experiment in a line: Tested in vitro for leishmanicidal activity against Leishmania brasiliensis (2903) at the concentration of 50 ug/mL;++ indicates 80-90% lysis of parasites.
Assay [40] deals with Leishmania donovani. The experiment in a line: Tested in vitro for leishmanicidal activity against Leishmania donovani (PP75) at the concentration of 50 ug/mL;++ indicates 80-90% lysis of parasites.
Assay [41] relates to Leishmania braziliensis. In words: Tested in vitro for leishmanicidal activity against Leishmania brasiliensis (2903) at the concentration of 25 ug/mL; ++ indicates 80-90%lysis of parasites.

`CCCCCCCCCCCCCCC(N)CNCC(=O)O` (stereo not given): the Activity in the assay on Leishmania donovani [1] is 80-90% lysis of parasites; in the assay with Leishmania amazonensis [2] it was 80-90% lysis of parasites; in the assay with Leishmania donovani [3], “+”; with Leishmania amazonensis [4] it was 80-90% lysis of parasites; in the assay with Leishmania donovani [5], 80-90% lysis of parasites; with Leishmania braziliensis [6], 80-90% lysis of parasites. Besides, the Activity in the assay with Leishmania braziliensis [7], with Leishmania amazonensis [8], in the assay with Leishmania braziliensis [9], in the assay on Leishmania donovani [10], in the assay on Leishmania braziliensis [11] and in the assay on Leishmania amazonensis [12] was 80-90% lysis of parasites throughout.
`CCCCCCCCCCCCCCC(CN(CC)CC)NC(=O)CCCC(=O)O` (stereo not given): the Activity entry in the assay with Leishmania amazonensis [13] is “+”; in the assay with Leishmania amazonensis [2], “+”; in the assay with Leishmania donovani [3], “+”; in the assay with Leishmania braziliensis [14], 80-90% lysis of parasites; in the assay with Leishmania donovani [15] it was 80-90% lysis of parasites; in the assay with Leishmania donovani [16], 80-90% lysis of parasites. Besides, the Activity in the assay on Leishmania braziliensis [17] was 80-90% lysis of parasites; in the assay on Leishmania braziliensis [18], “+”; with Leishmania amazonensis [19], 80-90% lysis of parasites; in the assay with Leishmania donovani [20], “+”; in the assay on Leishmania amazonensis [12], 80-90% lysis of parasites.
Turning to `CCCCCCCCCCCCCCC(CO)NCC` (stereo not given), the Activity result is “+” in the assay on Leishmania amazonensis [13]; “+” in the assay with Leishmania amazonensis [2]; “+” with Leishmania donovani [3]; 80-90% lysis of parasites with Leishmania amazonensis [21]; “+” in the assay with Leishmania donovani [20]; 80-90% lysis of parasites in the assay with Leishmania donovani [22]. In addition, the Activity in the assay with Leishmania braziliensis [23] is recorded as 80-90% lysis of parasites.
On to `CCCCCCCCCCCCCCC(COCc1ccccc1)NCC` (stereo not given), for which the Activity entry in the assay on Leishmania amazonensis [13] is “+”; with Leishmania amazonensis [2], “+”; in the assay on Leishmania donovani [3], “+”; in the assay with Leishmania donovani [24], 80-90% lysis of parasites; in the assay on Leishmania donovani [15], 80-90% lysis of parasites; with Leishmania braziliensis [25] it was 80-90% lysis of parasites. Also, the Activity in the assay on Leishmania amazonensis [26], in the assay on Leishmania braziliensis [27], in the assay on Leishmania donovani [20] and with Leishmania amazonensis [12] was 80-90% lysis of parasites each time.
`CCCCCCCCCCCCCCC(N)CN(CC(=O)OCC)CC(=O)OCC` (stereo not given): the Activity result in the assay with Leishmania amazonensis [13] was “+”; in the assay with Leishmania amazonensis [2], “+”; in the assay on Leishmania donovani [3], “+”; in the assay with Leishmania amazonensis [21], 80-90% lysis of parasites; in the assay on Leishmania braziliensis [18] it was “+”; with Leishmania braziliensis [28] it was 80-90% lysis of parasites. The values for the Activity in the assay with Leishmania donovani [29] and in the assay with Leishmania donovani [20] were 80-90% lysis of parasites and “+”, respectively.
Turning to `CCCCCCCCCCCCCCC(CO)NCC(=O)O` (stereo not given), the Activity entry with Leishmania donovani [1] was “Less than 70% lysis of parasites”; in the assay on Leishmania amazonensis [2], “+”; in the assay with Leishmania donovani [3] it was “+”; with Leishmania braziliensis [30], “Less than 70% lysis of parasites”; in the assay on Leishmania amazonensis [4] it was “Less than 70% lysis of parasites”; with Leishmania donovani [31] it was “Less than 70% lysis of parasites”. Moreover, the Activity result in the assay with Leishmania amazonensis [32], in the assay with Leishmania braziliensis [7], in the assay with Leishmania braziliensis [33], in the assay with Leishmania donovani [10] and in the assay with Leishmania amazonensis [12] was “Less than 70% lysis of parasites” throughout.
As to `CCCCCCCCCCCCCCC(CO)NCC(=O)OCC` (stereo not given), the Activity result in the assay on Leishmania amazonensis [2] is “+”; with Leishmania braziliensis [34], 80-90% lysis of parasites; in the assay with Leishmania donovani [3], “+”; with Leishmania donovani [31] it was 80-90% lysis of parasites; in the assay with Leishmania donovani [15], 80-90% lysis of parasites; in the assay with Leishmania amazonensis [32], 80-90% lysis of parasites. Also, the Activity in the assay with Leishmania braziliensis [35], in the assay with Leishmania amazonensis [36], with Leishmania braziliensis [33], with Leishmania amazonensis [12] and with Leishmania donovani [37] was 80-90% lysis of parasites each time.
In the case of `CCCCCCCCCCCCCCC(CO)NC(=O)CCCC(=O)O` (stereo not given), the Activity result in the assay on Leishmania amazonensis [2] was “+”; in the assay on Leishmania braziliensis [34] it was 80-90% lysis of parasites; in the assay on Leishmania donovani [3], “+”; with Leishmania amazonensis [38], 80-90% lysis of parasites; with Leishmania donovani [31], 80-90% lysis of parasites; in the assay with Leishmania donovani [15] it was 80-90% lysis of parasites. The Activity with Leishmania amazonensis [32], in the assay with Leishmania braziliensis [33], with Leishmania braziliensis [39], with Leishmania donovani [40] and with Leishmania amazonensis [12] was 80-90% lysis of parasites throughout.
Take `CCCCCCCCCCCCCCC(CO)N(CC)CC` (stereo not given): the Activity result in the assay with Leishmania amazonensis [13] was “+”; in the assay on Leishmania amazonensis [2], “+”; in the assay on Leishmania donovani [3] it was “+”; in the assay with Leishmania braziliensis [41], 80-90% lysis of parasites; in the assay on Leishmania donovani [31], 80-90% lysis of parasites; in the assay on Leishmania donovani [15] it was 80-90% lysis of parasites. The Activity in the assay with Leishmania amazonensis [32] is 80-90% lysis of parasites; in the assay with Leishmania donovani [20], “+”; with Leishmania amazonensis [12] it was 80-90% lysis of parasites.
